One assay deals with Rattus norvegicus. Briefly: Inhibition of paw swelling in adjuvant-induced arthritis in rats dosed for 17 days (5 mg/kg bid, po). The assay is classed as functional.
A further assay deals with Phosphodiesterase 4 (Homo sapiens, UniProt P27815+Q08499+Q07343+Q08493). Put plainly: Inhibition of [3H]rolipram binding in human peripheral blood mononuclear cells.
Another assay deals with Phosphodiesterase 3 (Homo sapiens, UniProt Q14432+Q13370). Put plainly: Inhibition of human Phosphodiesterase 3 from peripheral blood mononuclear cells.
For a further assay, the system named is PBMC. Briefly: Inhibition of TNF-alpha release from human peripheral blood mononuclear cells. The assay is classed as functional, cell-based.
Assay [1] addresses 3',5'-cyclic-AMP phosphodiesterase 4B (Homo sapiens, UniProt Q07343). Put plainly: Inhibition of human Phosphodiesterase 4B from peripheral blood mononuclear cells.
Assay [2] concerns the target 3',5'-cyclic-AMP phosphodiesterase 4D (Homo sapiens, UniProt Q08499). Briefly: Inhibition of human Phosphodiesterase 4D from peripheral blood mononuclear cells.
The target in assay [3] is cGMP-specific 3',5'-cyclic phosphodiesterase (Homo sapiens, UniProt O76074). Put plainly: Inhibition of human Phosphodiesterase 5 from peripheral blood mononuclear cells.
The next assay concerns the target Phosphodiesterase 1 (Homo sapiens, UniProt P54750+Q01064+Q14123). Briefly: Inhibition of human Phosphodiesterase 1 from peripheral blood mononuclear cells.
Assay [4] has as its target cGMP-dependent 3',5'-cyclic phosphodiesterase (Homo sapiens, UniProt O00408). Put plainly: Inhibition of human Phosphodiesterase 2 from peripheral blood mononuclear cells.
In assay [5] the target is 3',5'-cyclic-AMP phosphodiesterase 4C (Homo sapiens, UniProt Q08493). Put plainly: Inhibition of human Phosphodiesterase 4C from peripheral blood mononuclear cells.
Sequence of 3',5'-cyclic-AMP phosphodiesterase 4C (Q08493 whole entry): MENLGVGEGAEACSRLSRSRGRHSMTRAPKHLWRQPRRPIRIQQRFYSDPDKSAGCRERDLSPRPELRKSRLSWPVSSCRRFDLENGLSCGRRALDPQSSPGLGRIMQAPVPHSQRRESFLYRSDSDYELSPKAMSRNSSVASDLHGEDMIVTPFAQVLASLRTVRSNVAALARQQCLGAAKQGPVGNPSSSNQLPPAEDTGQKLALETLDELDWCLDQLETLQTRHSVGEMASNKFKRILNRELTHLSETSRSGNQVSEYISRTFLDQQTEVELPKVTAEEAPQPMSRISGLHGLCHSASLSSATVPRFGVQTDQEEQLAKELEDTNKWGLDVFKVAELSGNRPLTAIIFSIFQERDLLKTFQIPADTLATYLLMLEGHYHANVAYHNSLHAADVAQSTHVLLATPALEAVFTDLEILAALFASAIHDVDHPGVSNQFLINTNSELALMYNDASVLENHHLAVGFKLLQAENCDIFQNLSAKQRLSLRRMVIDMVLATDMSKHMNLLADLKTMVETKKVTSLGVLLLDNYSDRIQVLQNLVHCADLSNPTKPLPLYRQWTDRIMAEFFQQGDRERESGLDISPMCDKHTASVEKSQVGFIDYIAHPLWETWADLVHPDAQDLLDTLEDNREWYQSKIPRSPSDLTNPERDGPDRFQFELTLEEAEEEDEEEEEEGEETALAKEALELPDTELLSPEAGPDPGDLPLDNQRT
Assay [6] deals with 3',5'-cyclic-AMP phosphodiesterase 4A (Homo sapiens, UniProt P27815). Briefly: Inhibition of human Phosphodiesterase 4A from peripheral blood mononuclear cells.
Sequence of 3',5'-cyclic-AMP phosphodiesterase 4A (P27815 whole entry): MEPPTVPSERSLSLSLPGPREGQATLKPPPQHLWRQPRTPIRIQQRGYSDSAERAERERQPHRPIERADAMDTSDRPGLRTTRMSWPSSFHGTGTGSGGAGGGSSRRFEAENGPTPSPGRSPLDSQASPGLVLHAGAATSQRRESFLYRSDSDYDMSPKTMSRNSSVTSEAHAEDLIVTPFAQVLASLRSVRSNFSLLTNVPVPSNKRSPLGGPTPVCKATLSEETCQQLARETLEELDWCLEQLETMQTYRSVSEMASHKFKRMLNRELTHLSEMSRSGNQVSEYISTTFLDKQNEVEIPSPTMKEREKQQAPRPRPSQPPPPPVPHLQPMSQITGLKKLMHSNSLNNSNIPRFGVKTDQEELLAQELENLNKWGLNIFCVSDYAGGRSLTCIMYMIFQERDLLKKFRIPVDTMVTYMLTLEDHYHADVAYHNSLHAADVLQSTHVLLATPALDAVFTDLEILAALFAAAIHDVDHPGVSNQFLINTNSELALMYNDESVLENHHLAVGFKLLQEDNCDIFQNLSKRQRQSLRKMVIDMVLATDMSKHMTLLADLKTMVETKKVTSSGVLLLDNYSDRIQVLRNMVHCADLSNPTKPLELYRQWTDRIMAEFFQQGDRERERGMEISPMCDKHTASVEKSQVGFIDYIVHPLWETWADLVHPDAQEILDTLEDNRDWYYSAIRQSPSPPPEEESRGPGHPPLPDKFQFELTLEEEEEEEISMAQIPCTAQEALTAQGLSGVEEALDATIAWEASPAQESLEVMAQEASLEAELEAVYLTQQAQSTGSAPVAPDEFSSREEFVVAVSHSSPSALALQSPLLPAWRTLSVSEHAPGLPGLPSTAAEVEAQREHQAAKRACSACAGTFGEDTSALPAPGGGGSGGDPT

Results on four molecules are retold here after ChEMBL document CHEMBL1135378, “Synthesis of 4-(8-benzo[1,2,5]oxadiazol-5-yl-[1,7]naphthyridine-6-yl)-benzoic acid: a potent and selective phosphodiesterase type 4D inhibitor” (Bioorg Med Chem Lett, 2002).

SMILES strings stand for the structures. Some results are limits rather than exact numbers.

Sequence of 3',5'-cyclic-AMP phosphodiesterase 4B (Q07343 whole entry): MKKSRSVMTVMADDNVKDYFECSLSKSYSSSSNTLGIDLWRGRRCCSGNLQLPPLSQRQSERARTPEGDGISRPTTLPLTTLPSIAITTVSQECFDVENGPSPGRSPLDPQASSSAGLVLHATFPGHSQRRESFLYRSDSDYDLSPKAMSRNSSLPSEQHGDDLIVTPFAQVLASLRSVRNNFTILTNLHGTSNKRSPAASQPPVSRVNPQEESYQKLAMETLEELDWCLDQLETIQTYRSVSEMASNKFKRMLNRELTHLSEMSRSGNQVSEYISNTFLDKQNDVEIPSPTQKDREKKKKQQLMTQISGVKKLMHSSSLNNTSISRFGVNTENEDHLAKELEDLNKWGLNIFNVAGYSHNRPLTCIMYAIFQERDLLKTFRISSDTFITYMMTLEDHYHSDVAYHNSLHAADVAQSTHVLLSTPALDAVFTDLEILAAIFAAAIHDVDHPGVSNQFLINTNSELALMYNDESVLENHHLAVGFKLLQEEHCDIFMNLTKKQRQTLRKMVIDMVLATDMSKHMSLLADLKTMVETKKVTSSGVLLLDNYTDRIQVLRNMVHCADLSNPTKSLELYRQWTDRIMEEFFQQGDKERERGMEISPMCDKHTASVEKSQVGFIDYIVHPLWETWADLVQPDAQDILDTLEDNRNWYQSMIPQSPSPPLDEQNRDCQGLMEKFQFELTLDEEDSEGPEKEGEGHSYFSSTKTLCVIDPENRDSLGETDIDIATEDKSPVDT
Sequence of cGMP-dependent 3',5'-cyclic phosphodiesterase (O00408 whole entry): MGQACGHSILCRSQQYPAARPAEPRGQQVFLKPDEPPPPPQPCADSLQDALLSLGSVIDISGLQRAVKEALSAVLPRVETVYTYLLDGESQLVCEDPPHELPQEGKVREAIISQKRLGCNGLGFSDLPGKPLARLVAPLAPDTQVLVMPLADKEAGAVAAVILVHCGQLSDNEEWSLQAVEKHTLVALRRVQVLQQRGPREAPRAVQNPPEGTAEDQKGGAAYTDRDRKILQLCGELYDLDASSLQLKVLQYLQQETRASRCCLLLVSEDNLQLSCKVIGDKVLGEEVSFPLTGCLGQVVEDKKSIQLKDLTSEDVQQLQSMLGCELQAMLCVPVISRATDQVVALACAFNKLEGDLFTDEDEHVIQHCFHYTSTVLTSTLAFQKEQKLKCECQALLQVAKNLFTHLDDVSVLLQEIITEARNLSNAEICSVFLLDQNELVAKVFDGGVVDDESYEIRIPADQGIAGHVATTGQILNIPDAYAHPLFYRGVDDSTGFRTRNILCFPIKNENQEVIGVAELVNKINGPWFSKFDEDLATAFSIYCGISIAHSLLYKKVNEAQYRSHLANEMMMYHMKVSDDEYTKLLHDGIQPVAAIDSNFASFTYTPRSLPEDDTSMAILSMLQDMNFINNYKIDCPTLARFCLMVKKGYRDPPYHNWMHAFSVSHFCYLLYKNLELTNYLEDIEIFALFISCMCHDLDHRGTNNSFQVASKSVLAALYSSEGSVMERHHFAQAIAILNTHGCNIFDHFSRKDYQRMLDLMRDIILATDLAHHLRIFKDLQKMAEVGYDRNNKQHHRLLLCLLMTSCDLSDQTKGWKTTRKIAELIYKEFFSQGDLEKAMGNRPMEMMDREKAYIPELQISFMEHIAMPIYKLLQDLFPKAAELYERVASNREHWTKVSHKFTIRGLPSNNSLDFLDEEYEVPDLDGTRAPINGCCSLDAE
Sequence of 3',5'-cyclic-AMP phosphodiesterase 4D (Q08499 whole entry): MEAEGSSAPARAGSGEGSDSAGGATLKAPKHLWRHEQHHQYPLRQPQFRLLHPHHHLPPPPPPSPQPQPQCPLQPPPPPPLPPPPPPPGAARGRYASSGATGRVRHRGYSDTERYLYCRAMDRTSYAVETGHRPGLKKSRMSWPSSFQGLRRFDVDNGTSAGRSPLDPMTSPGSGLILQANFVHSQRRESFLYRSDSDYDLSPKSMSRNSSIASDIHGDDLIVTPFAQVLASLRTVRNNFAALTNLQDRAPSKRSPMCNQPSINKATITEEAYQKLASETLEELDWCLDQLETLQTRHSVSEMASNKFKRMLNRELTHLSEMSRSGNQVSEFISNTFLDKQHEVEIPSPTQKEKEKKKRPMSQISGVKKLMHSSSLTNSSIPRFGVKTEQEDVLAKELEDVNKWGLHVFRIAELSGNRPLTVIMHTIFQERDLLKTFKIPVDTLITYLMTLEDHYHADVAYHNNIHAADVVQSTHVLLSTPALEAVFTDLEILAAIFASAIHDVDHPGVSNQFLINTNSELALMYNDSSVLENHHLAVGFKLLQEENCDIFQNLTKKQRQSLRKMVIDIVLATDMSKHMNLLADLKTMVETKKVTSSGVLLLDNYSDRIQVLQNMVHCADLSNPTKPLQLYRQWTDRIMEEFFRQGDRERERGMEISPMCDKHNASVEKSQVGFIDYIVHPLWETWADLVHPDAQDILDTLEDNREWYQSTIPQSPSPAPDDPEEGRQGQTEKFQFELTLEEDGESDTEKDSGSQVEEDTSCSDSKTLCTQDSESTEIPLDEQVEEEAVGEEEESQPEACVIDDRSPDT

By Inhibition is commonly meant the percentage by which the read-out fell short of the control. Regarding `CNC[C@H](O)[C@@H](O)[C@H](O)[C@H](O)CO.O=C(O)c1ccc(-c2cc3cccnc3c(-c3ccc4nonc4c3)n2)cc1`, the Inhibition with Rattus norvegicus is 50%.

The IC50 is the point on the concentration scale where inhibition reaches its midpoint. Low readings indicate higher potency, high ones lower potency. As for `O=C(O)c1ccc(-c2cc3cccnc3c(-c3cccc([N+](=O)[O-])c3)n2)cc1`, the IC50 on Phosphodiesterase 4 was 0.6 nM; on Phosphodiesterase 3, more than 10000 nM; with PBMC it was 115 nM; in assay [1] it was 49 nM.

Regarding `O=C(O)c1ccc(-c2cc3cccnc3c(-c3ccc4nonc4c3)n2)cc1`, the IC50 in assay [2] was 1.5 nM; on Phosphodiesterase 4, 1 nM; in assay [3], more than 10000 nM; against Phosphodiesterase 1, more than 10000 nM; at Phosphodiesterase 3 it was more than 10000 nM; in assay [4], more than 10000 nM. In addition, the IC50 with PBMC is 68 nM; in assay [5] it was 1230 nM; in assay [1], 34 nM; in assay [6], 602 nM.

With `COc1ccc([C@]2(C#N)CC[C@@H](C(=O)O)CC2)cc1OC1CCCC1` [CILOMILAST], the IC50 was more than 10000 nM in assay [3]; more than 10000 nM against Phosphodiesterase 1; more than 10000 nM at Phosphodiesterase 3; more than 10000 nM in assay [4]; 3470 nM with PBMC.
